Activity calls are given as the source filed them. For most assays here, no stated cut-off is given here; in the data, actives have a measured EC50 and inactives only a lower limit.

In one test the target is T1, CAAX prenyl protease 2 (Saccharomyces cerevisiae S288c, UniProt Q03530).
T1 sequence (Q03530 whole entry): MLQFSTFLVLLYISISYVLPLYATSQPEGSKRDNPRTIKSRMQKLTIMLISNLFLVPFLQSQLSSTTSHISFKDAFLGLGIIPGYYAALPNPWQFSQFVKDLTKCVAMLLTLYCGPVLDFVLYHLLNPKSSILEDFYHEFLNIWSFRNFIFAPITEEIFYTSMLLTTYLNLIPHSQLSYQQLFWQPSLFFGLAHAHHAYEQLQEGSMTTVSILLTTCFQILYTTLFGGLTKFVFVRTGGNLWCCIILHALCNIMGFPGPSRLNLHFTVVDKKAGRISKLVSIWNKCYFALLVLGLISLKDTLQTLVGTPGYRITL
The test is classed as biochemical.

In a further test the target is NS3 (Hepatitis C virus, UniProt A3EZJ3). Put plainly: PubChem AID 2173. Further details: species or system Hepacivirus hominis.
Test [1] can be described thus: Luminescence Cell-Based Dose Response to Identify Activators of 5'UTR Stem-Loop Driven Prion Protein mRNA Translation in H4-C Neuroglioblastoma Cells. [Related pubchem assays: 1829 (Project Summary), 1814 (Primary HTS)]. The test is classed as functional.
Test [2] in a line: Luminescence Cell-Based Dose Response HTS to Identify Activators of Luciferase Translation or Activity in H4 […] Cells. [Related pubchem assays: 1829 (Project Summary), 1814 (Primary HTS)]. It counts as functional.
The test system of another test is H4. Put plainly: Luminescence Cell-Based Dose Response HTS to Identify Activators of 5'UTR Stem-Loop Driven Prion Protein mRNA Translation in H4 Neuroglioblastoma Cells. [Related pubchem assays: 1829 (Project Summary), 1814 (Primary HTS)]. It counts as functional. As to conditions: Homo sapiens.
Test [3] is described as follows: Luminescence Cell-Based Dose Confirmation HTS to Identify Activators of 5'UTR Stem-Loop Driven Alpha-Synuclein mRNA Translation in H4 Neuroglioblastoma Cells. [Related pubchem assays: 1829 (Project Summary), 1814 (Primary HTS)]. The test is classed as functional.
The nature of test [4]: Luminescence Cell-Based Dose Confirmation to Identify Activators of 5'UTR Stem-Loop Driven Alpha-Synuclein mRNA Translation in H4 Neuroglioblastoma Cells. [Related pubchem assays: 1829 (Project Summary), 1814 (Primary HTS)]. It counts as functional.
Another test deals with T2, Protein RecA (Mycobacterium tuberculosis, UniProt P9WHJ3).
T2 sequence (P9WHJ3 whole entry): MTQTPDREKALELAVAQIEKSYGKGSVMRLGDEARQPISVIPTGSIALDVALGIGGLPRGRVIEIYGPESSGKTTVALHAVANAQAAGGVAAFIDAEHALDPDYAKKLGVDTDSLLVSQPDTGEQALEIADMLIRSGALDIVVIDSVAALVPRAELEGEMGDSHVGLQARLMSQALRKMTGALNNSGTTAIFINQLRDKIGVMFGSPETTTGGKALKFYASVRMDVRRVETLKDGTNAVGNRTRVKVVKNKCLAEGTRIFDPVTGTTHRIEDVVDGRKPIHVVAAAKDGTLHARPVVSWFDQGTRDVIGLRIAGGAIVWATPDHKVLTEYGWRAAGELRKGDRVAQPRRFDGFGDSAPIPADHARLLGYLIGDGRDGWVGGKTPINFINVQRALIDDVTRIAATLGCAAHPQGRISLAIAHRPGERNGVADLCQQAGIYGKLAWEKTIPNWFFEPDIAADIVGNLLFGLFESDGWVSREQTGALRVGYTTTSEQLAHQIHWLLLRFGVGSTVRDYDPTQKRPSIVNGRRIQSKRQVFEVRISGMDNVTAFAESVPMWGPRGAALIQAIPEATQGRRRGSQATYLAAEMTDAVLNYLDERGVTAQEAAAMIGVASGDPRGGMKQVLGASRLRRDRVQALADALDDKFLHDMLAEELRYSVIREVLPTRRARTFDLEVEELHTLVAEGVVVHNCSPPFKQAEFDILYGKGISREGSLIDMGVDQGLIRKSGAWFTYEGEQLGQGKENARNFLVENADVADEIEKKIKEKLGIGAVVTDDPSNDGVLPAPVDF
Put plainly: Fluorescence Cell-Free Homogeneous Dose Retest to Identify Inhibitors of RecA-Intein Splicing Activity. [Related pubchem assays (depositor defined):AID2097, AID2223, AID489010, AID492950]. The test is classed as functional.

Test [5] deals with T3, Microphthalmia-associated transcription factor (Homo sapiens, UniProt O75030).
T3 sequence (O75030 whole entry): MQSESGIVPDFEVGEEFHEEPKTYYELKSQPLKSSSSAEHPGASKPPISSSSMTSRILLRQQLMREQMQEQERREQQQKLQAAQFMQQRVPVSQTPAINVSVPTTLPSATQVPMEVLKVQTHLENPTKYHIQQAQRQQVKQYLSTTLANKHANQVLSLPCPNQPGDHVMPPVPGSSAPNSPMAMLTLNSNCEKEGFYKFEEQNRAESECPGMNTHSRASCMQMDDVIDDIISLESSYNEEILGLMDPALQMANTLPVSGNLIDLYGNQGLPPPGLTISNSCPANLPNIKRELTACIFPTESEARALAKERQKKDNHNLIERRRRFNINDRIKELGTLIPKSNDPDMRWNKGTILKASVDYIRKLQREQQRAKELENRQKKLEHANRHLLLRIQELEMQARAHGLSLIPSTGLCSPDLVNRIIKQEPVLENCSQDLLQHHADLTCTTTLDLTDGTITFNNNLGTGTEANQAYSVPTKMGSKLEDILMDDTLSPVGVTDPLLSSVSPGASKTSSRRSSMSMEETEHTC
Put plainly: reducers of TRPM1 reporter luminescence, concentration series – cell-based, SK-MEL-5, cherry-picked, set 3, MITF inhibitor project, dose response (AID 493073).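 Further: SK-MEL-5 melanoma cells with luciferase driven by the MITF target TRPM1 promoter.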 It counts as functional.

Test [6] deals with T4, Replicative DNA helicase DnaB (Mycobacterium tuberculosis, UniProt P9WMR3).
T4 sequence (P9WMR3 whole entry): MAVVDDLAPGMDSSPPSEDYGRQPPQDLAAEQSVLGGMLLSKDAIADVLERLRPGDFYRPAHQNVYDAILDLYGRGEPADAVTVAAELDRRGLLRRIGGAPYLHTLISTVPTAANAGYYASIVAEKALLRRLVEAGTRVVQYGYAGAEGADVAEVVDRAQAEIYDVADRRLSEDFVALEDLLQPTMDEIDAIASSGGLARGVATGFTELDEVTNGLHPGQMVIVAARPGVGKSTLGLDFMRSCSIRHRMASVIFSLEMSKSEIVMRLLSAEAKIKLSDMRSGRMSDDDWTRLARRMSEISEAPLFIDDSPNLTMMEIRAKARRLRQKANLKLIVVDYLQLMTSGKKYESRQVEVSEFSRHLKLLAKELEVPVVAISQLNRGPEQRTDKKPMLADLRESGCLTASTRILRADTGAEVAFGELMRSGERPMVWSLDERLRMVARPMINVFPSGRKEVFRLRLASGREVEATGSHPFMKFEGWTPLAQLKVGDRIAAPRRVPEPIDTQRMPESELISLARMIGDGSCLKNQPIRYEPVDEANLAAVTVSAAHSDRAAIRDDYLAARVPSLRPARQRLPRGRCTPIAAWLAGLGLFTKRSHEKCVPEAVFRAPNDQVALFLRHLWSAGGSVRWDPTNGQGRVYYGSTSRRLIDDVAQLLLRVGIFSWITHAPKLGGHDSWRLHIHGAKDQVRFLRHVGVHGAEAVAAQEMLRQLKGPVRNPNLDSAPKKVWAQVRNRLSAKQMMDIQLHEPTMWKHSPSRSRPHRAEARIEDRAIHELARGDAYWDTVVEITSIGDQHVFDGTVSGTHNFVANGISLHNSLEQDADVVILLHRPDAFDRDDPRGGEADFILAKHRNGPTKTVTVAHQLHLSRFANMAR
Put plainly: DnaB intein splicing inhibitors, dose response, biochemical, cell-free fluorescence (AID 449749). The test is classed as functional.

The nature of test [7]: Luminescence Cell-Based Dose Response to Identify Activators of Luciferase Translation or Activity in H4-C Neuroglioblastoma Cells. [Related pubchem assays: 1829 (Project Summary), 1814 (Primary HTS)]. It counts as functional.
Another test deals with INS1. Put plainly: INS-1E survival protection against cytokine death – cell-based, luminescence, retest, dose response (AID 449756).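 Further: cell death triggered by IL-1 beta plus TNF-alpha plus IFN-gamma mixture; protective hits raise ATP signal compared with cytokine alone wells.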 As to conditions: Rattus norvegicus. The test is classed as functional.
The target in test [8] is Induced myeloid leukemia cell differentiation protein Mcl-1 (Homo sapiens, UniProt Q07820). The test is classed as functional.
Test [9] relates to Vero. In words: viability of Vero cells under compound – cytotoxicity control for flavivirus capping enzyme inhibitors (AID 588742). The test is classed as functional. Conditions: Chlorocebus sabaeus.
Test [10] relates to Vero. In words: cells. Conditions: Chlorocebus sabaeus. The test is classed as functional.
The target in the next test is Beta-galactosidase (Escherichia coli, UniProt Q8VNN2). In words: PubChem AID 485352. It counts as functional.
The target of another test is Large T antigen (Simian virus 40, UniProt P03070). It counts as functional, Betapolyomavirus macacae.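 Further: Confirmatory-stage PubChem screen for compounds that inhibit SV40 T antigen.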
In test [11] the target is T5, Type-1 angiotensin II receptor (Homo sapiens, UniProt P30556).
T5 sequence (P30556 whole entry): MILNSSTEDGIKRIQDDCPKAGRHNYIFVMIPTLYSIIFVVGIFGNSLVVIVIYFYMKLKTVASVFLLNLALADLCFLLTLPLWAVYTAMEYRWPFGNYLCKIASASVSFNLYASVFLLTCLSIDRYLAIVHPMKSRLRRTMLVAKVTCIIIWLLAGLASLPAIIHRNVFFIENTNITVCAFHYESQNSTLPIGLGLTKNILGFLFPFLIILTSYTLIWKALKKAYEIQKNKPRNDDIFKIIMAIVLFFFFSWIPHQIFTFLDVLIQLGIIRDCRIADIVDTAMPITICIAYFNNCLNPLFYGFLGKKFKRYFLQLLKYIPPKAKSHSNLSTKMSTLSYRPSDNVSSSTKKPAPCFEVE
In words: antagonism of angiotensin II type 1 receptor – cell-based, uHTS hits, selectivity assay for APJ receptor antagonist project, dose response (AID 463214).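 Further: antagonist potency against angiotensin II stimulated AT1 response.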 It counts as functional.

The nature of test [12]: viability loss of HPDE-C7K cells – cell-based, fluorescence, HTS, primary screen (AID 431). The test is classed as functional. Conditions: Homo sapiens.
A short description of test [13]: HPDE-C7 pancreatic duct cell viability loss – fluorescence, HTS (AID 430). The test is classed as functional, cell-based. As to conditions: Homo sapiens.
Test [14] can be described thus: Luminescence Cell-Based Dose Response HTS to Identify Inhibitors of 5'UTR Stem-Loop Driven Prion Protein mRNA Translation in H4 Neuroglioblastoma Cells. [Related pubchem assays: 1827 (Project Summary), 1813 (Primary HTS)]. The test is classed as functional.
The nature of test [15]: alpha-synuclein stem-loop luciferase translation blockers – H4 neuroglioma cells, luminescence, confirmation (AID 1988). The test is classed as functional, cell-based.
A short description of test [16]: luciferase reporter signal suppression in cells – H4 neuroglioma cells, luminescence, dose response (AID 1990). The test is classed as functional, cell-based. (A reporter such as luciferase makes a cellular process visible.)
Test [17] concerns the target Voltage-dependent T-type calcium channel subunit alpha-1H (Homo sapiens, UniProt O95180). The test is classed as functional.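 Further: channel activity triggered by adding a high calcium stimulation buffer.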

NS3, sequence (A3EZJ3 whole entry): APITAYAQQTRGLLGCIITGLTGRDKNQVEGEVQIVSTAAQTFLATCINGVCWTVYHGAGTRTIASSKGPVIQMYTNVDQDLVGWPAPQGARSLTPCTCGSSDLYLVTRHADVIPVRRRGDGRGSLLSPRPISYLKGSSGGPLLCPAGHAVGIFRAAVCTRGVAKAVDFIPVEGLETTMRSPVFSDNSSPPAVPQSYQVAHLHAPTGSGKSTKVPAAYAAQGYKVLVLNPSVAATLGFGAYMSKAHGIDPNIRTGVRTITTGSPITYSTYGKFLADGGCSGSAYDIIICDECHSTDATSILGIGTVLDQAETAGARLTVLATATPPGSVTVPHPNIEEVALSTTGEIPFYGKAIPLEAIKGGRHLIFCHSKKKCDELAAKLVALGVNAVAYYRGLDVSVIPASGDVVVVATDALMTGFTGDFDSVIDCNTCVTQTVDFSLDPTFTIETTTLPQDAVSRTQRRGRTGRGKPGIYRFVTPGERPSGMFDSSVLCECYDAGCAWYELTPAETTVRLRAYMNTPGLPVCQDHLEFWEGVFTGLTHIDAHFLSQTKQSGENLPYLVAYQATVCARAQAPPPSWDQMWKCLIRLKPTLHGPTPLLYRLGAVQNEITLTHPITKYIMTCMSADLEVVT
Large T antigen, sequence (P03070 whole entry): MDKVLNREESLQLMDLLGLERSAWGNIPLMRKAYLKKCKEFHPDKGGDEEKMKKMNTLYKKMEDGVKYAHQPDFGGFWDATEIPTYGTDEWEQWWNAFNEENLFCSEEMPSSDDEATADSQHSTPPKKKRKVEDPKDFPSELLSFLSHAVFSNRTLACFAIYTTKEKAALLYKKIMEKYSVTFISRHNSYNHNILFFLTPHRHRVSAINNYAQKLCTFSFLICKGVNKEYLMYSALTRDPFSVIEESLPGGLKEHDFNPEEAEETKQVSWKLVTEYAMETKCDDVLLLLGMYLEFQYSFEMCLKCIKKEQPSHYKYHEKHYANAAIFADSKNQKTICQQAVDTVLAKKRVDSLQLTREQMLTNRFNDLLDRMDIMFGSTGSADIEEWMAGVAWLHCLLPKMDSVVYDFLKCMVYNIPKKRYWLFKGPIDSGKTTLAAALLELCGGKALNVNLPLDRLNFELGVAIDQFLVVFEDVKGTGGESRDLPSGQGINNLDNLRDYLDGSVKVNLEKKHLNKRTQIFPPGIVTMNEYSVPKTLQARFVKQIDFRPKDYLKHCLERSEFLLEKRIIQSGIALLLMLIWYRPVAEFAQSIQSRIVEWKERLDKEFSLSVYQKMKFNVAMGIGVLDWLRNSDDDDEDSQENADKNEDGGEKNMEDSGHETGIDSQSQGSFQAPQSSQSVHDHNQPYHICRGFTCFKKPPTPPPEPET
Beta-galactosidase, sequence (Q8VNN2 whole entry): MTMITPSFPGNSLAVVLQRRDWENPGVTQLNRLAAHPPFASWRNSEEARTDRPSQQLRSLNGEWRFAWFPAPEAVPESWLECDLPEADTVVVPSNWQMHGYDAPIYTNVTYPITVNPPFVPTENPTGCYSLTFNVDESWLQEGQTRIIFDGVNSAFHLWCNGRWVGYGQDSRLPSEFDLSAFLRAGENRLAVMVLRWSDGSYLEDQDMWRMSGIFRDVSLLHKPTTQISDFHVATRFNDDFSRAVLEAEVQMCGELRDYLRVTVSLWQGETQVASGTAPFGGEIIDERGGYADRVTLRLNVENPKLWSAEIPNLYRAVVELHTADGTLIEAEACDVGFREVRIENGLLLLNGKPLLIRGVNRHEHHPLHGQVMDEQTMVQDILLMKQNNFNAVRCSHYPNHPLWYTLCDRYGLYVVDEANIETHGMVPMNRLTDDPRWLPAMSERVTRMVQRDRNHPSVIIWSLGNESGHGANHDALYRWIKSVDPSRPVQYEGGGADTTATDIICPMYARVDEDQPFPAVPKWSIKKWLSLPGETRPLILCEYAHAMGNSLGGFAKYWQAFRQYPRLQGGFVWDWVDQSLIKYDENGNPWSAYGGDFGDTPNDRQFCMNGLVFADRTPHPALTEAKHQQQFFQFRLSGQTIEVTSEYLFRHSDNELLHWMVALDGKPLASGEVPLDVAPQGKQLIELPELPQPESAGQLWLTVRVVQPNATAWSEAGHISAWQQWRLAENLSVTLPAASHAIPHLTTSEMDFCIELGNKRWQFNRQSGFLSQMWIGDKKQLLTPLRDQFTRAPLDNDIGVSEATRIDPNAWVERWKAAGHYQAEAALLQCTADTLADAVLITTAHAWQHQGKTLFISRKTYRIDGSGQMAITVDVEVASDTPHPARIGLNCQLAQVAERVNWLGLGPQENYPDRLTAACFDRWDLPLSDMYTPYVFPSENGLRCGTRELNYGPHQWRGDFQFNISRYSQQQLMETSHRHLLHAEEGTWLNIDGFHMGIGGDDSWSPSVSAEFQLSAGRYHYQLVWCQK
Voltage-dependent T-type calcium channel subunit alpha-1H, sequence (O95180 whole entry): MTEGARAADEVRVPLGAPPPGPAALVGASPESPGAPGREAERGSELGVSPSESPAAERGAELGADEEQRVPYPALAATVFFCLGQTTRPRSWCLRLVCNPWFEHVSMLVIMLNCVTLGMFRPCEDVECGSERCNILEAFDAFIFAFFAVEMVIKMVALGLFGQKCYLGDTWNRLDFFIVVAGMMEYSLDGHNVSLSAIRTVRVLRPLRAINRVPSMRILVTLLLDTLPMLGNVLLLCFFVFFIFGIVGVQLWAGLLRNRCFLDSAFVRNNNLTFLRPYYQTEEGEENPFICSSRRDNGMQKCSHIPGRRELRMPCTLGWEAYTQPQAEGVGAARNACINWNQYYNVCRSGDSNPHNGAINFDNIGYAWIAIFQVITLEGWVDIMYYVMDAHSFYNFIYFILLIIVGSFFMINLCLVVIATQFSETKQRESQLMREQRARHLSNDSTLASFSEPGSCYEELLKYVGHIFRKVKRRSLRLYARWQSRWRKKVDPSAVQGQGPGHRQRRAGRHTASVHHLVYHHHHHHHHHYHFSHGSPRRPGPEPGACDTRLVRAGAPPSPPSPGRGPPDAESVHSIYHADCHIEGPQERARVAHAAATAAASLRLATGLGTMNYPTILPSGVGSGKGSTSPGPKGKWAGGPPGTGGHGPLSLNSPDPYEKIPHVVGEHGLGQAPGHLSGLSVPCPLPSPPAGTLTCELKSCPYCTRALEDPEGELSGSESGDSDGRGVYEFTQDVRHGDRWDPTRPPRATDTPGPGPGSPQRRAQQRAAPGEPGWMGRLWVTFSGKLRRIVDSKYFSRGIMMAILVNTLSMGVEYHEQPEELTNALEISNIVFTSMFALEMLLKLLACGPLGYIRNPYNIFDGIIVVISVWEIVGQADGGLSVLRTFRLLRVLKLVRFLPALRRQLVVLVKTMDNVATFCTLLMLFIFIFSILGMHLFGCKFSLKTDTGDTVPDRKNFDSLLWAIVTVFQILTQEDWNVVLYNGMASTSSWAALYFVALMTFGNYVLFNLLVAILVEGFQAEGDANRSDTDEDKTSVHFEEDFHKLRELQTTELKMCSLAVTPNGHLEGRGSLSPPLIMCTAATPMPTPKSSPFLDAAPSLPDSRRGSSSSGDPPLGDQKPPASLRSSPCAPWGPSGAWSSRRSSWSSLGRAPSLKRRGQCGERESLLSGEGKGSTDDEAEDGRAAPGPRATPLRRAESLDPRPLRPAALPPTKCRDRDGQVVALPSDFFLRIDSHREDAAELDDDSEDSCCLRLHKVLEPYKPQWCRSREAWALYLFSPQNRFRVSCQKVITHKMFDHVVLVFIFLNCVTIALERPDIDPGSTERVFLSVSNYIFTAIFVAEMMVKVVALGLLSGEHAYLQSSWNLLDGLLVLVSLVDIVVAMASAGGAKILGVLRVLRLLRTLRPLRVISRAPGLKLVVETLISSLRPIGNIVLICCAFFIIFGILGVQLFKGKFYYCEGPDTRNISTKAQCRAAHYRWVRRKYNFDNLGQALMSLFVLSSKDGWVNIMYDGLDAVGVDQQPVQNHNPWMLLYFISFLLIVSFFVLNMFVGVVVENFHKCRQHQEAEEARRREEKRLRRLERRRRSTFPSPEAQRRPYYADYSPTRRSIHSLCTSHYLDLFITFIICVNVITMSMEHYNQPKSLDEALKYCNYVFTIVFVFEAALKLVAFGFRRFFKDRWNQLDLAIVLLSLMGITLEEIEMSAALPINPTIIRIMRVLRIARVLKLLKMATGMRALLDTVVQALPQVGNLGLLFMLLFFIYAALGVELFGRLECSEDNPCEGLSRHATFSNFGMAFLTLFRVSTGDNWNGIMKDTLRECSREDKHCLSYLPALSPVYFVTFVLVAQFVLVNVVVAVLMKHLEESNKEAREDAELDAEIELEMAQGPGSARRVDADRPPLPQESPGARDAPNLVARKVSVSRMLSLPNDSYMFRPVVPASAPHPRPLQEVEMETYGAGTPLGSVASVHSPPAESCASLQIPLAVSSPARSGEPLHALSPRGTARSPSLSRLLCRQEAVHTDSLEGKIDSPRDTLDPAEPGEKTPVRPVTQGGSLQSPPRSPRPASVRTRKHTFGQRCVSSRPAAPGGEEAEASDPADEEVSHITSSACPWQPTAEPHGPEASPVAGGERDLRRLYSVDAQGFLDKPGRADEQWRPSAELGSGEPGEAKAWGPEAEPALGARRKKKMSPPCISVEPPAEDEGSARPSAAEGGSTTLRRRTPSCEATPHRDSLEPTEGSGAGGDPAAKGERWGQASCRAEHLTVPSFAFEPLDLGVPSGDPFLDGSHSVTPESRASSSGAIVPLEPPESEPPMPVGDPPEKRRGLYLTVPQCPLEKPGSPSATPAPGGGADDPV
Induced myeloid leukemia cell differentiation protein Mcl-1, sequence (Q07820 whole entry): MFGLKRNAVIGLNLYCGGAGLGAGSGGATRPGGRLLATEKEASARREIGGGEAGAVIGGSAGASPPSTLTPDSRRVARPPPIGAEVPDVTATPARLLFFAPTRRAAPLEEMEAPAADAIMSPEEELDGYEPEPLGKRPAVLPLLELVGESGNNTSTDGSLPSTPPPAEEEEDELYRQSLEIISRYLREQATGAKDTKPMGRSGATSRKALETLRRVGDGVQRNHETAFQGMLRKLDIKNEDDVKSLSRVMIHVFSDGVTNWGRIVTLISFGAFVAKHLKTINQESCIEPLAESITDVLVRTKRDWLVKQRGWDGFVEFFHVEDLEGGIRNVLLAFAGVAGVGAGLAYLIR

A word on the AC50: it is the concentration at which the activity in the assay is half-maximal. As a reminder, the IC50 is the concentration that gives 50% inhibition. As to `CCCCOc1ccc(-c2cc(C(F)(F)F)c(C#N)c(SCC(=O)O)n2)cc1`, the AC50 on CAAX prenyl protease 2 is 25.4 µM (active). Also, the IC50 at NS3 was 1.98 µM (active).

The EC50 is the concentration that produces a half-maximal response. Regarding `O=C(CCl)Nc1cccc(-c2cnc3ccccc3n2)c1`, the EC50 in test [1] is > 12 µM (not active); in test [2], 2.98 µM (active); with H4 it was > 60 µM (not active); in test [3], < 0.1 µM (active); in test [4], 0.7 µM (active); on Protein RecA it was 13.3 µM (active). In addition, in [7], the EC50 is 0.561 µM (active). For the same compound, the results for the AC50 in [5] and in test [6] were 4.02 µM (active) and 53.1 µM (active), respectively.

A word on the CC50: it is the concentration giving 50% cytotoxicity. As to `COc1ccccc1NC(=O)c1cc2cc(Br)ccc2cc1O`, in the test with INS1, the AC50 was 6.21 µM (active). For the same compound, the concentration for half-maximal inhibition (IC50) was 2.63 µM (active) in test [8] and > 4.03 µM (active) at NS3. Further, the half-maximal cytotoxic concentration (CC50) is 4.04 µM (active) with Vero [9] and 2.72 µM (active) in the test with Vero [10].

In the case of `Cc1ccc(SSc2cc(C)ccc2N)c(N)c1`, the EC50 in test [1] was 1.21 µM (active); at Beta-galactosidase, > 40 µM (inactive); in [2], < 0.1 µM (inconclusive); in the test on H4, 42.5 µM (inconclusive); in test [4], 5 µM (active); in [7] it was 1.67 µM (active). In addition, the values for the IC50 (on Large T antigen; in [11]) were 10.8 µM (active) and > 40 µM (not active), respectively.

For `Cn1c(CCN2CCCCCC2)nc2cc(NC(=O)Nc3ccccc3)ccc21`, the 50% effective concentration (EC50) in test [12] and in test [13] was > 20 µM (not active) each time.

For the compound `O=C(CCC(=O)N1CCN(C2CCCC2)CC1)Nc1nnc(C(F)(F)F)s1`, the concentration giving a half-maximal response (EC50) in [12] and in test [13] was > 20 µM (not active) throughout.

Regarding `Oc1ncnc2nn(-c3ccccc3)nc12`, the EC50 was 4.54 µM (active) in [1]; > 120 µM (not active) in [2]; > 120 µM (not active) with H4; < 0.1 µM (active) in [3]; > 12 µM (not active) in test [4]; > 12 µM (not active) in [7].

As to `COc1cc(C)c(C(C)C)cc1S(=O)(=O)n1cnc(C)c1`, the EC50 in [12] is 4.11 µM (active); in [13], 3.47 µM (active); in test [14] it was > 120 µM (not active); in [15], 9.12 µM (active); in [16], > 120 µM (not active); in [17], 52.3 µM (active).

For the origin of these results see ChEMBL document CHEMBL1201862, “PubChem BioAssay data set” (2004).
